# Test results taken from patent US8940491B2, “Genotoxicity as a biomarker for inflammation” (The Regents of the University of California, priority 2009, dated 2015).
# Entries after “also recorded” stand apart in the source; their conditions may differ.
# B1: IL-1β: mouse IL-1β (Sigma) injected via the tail vein at 100 ng/mouse (protein, UniProt P10749 118-269, looked up)
# Interleukin-1 beta: VPIRQLHYRLRDEQQKSLVLSDPYELKALHLNGQNINQQVIFSMSFVQGEPSNDKIPVALGLKGKNLYLSCVMKDGTPTLQLESVDPKQYPKKKMEKRFVFNKIEVKSKVEFESAEFPNWYISTSQAEHKPVFLGNNSGQDIIDFTMESVSS
# Legend:
# peripheral leukocytes [1] = experiment: 8-oxoguanine and nitrotyrosine immunofluorescence, DSS colitis; assay type: in vivo, mouse; conditions: DSS 7 days, 3% w/v; p<0.01
# Source text: (§1) Immunofluorescence. […] Samples were then processed on coverslips essentially as described elsewhere (26).
# 8-oxoguanine is an oxidative DNA lesion formed by reaction of hydroxyl radicals, metal hyrdroperoxides, or peroxynitrite with DNA, causing G:C to T:A transversions during replication (33). Nitrotyrosine is a biochemical marker for NO-induced peroxynitrite formation involving reactions with reactive oxygen and nitrogen species resulting in nitrative damage to proteins (34).
# peripheral leukocytes [2] = experiment: γ-H2AX immunofluorescence, DSS colitis; assay type: in vivo, mouse
# Source text: as §1
# mice = experiment: Disease activity index in DSS-induced experimental colitis; assay type: in vivo
# Experimental: Induction of chemical colitis. […] Acute colitis was defined as a 7 day treatment, and chronic colitis as any further treatment including remission periods. Control animals received sterile acidified water only. Symptoms (weight loss, stool consistency, gross bleeding) were recorded daily for calculation of disease activity index (23).
# Evaluation of Experimental Colitis. The disease activity index (DAI) is the average combined score of weight loss (0-4), stool consistency (0-4), and bleeding (0-4), used to score clinical symptoms (23).
# [3] = literature references; cited from earlier work
# peripheral blood T-cells = experiment: Flow cytometry of activated T-cells (CD69, CD44) in peripheral blood, DSS colitis; assay type: in vivo, mouse; conditions: in response to DSS treatment
# Source text: Flow Cytometry. T cell populations were characterized for activation status (CD69 and CD44) and CD4 or CD8α expression using flow cytometry. Erythrocytes were immediately lysed with BD PharmLyse Lysis Buffer (BD Biosciences, San Diego, Calif.). After washing with Stain Buffer with 0.2% BSA (BD), cells were stained with FITC conjugated Hamster Anti-Mouse CD69, FITC conjugated Rat Anti-Mouse/Human CD44, R-PE conjugated Rat Anti-Mouse CD4, PerCP Rat Anti-Mouse CD8α, or appropriate negative isotype controls (BD Biosciences) for 30 min at 4° C. Cells were then washed and analyzed using BD FACScan. Fluorescence intensity was normalized to each respective isotype control antibody and data were analyzed with CellQuest® (BD Biosciences). Dead cells were excluded by gating on forward/side scatter. Marker expression was recorded either as percent positive of the absolute count of total T cells, or by median fluorescence intensity if the control and marker populations overlapped.
# erythroblasts = experiment: In vivo micronucleus assay in Atm−/−, Atm+/− and wildtype mice with DSS colitis; parameters: species or system mouse; conditions: all genotypes, more severe in Atm−/−
# Experimental: In vivo micronucleus assay. […] At least 4000 mature erythrocytes were counted per animal, and the frequency of MN formation was calculated as the number of micronucleated erythrocytes per 1000 normochromatic erythrocytes.
# peripheral leukocytes [4] = experiment: Alkaline comet assay with and without hOgg1 incubation, DSS colitis; assay type: in vivo, mouse
# Source text: Blood collection. […] Identical blood samples were used for genotoxic endpoints as well as for cytokine expression.
# Alkaline comet assay. […] Frozen blood was further diluted 1:15 in PBS before further preparation.
# Determination of oxidative DNA damage. The enzyme hOgg1-modified comet assay was used for determination of oxidative DNA damage (25). […] (New England Biolabs, Ipswich, Mass.).
# peripheral leukocytes [5] = conditions: mouse, in vivo
# Experimental: Alkaline comet assay. To detect DNA strand breaks, as well as alkali labile sites in DNA, the alkaline comet assay was performed as described elsewhere (4). Frozen blood or single cell suspensions were thawed on ice and further diluted 1:15 in PBS before further sample preparation. After lysis and electrophoresis, gels were stained with SYBR Gold (Molecular Probes) and visualized under a fluorescent microscope (Olympus Ax70, Tokyo, Japan) at 10× magnification. Comet images were captured and analyzed with the CASP image analysis program (http://casp.sourceforge.net). The olive tail moment, which represents both tail length and fraction of DNA in the tail, was used for data collection and analysis, in which apoptotic cells were excluded under previously proposed criteria (4).
# Injection of cytokines. Mouse TNF-α (Sigma) and/or mouse IL-1β (Sigma) were injected via the tail vein at 500 ng/mouse and 100 ng/mouse, respectively, dissolved in saline. Control animals received vehicle only. Peripheral blood was collected at 1 hr, 2 hrs, 4 hrs, and 24 hrs after injection for genotoxicity assays.
# [6] = test system: normochromatic erythrocytes; experiment: Micronucleus assay after cytokine injection; assay type: in vivo, mouse; conditions: 48 hours post-injection compared to before injection
# Experimental: In vivo micronucleus assay. Micronucleus formation was determined in normochromatic erythrocytes as micronucleated normochromatic erythrocytes per 1000 normochromatic erythrocytes as described previously (1, 8).
# Injection of cytokines. […] Control animals received vehicle only.
Molecule,8-oxoguanine and nitrotyrosine positive peripheral leukocytes (peripheral leukocytes [1]),"Percentage of cells positive for γ-H2AX nuclear foci (peripheral leukocytes [2]; after the first 7 day acute DSS treatment vs non-treated, p<0.01)","Percentage of cells positive for γ-H2AX nuclear foci (peripheral leukocytes [2]; later cycles until end of treatment vs non-treated, p<0.05)","Mortality (mice; after three cycles of DSS treatment, wildtype mice)",Start of rectal bleeding (mice; cycle 1 of 3% DSS treatment) [days],Mutagenicity / direct genotoxicity of DSS itself [3],"Proportion of activated (CD69+, CD44+) T-cells, Atm−/− vs wildtype mice (peripheral blood T-cells)",Micronucleus formation in erythroblasts (toxicity of inflammation) (erythroblasts),"Mean olive tail moment (DNA single and double strand breaks, alkali-labile sites) (peripheral leukocytes [4]; DSS treated vs non-treated mice, end of each cycle, p<0.01)","Mean olive tail moment with hOgg1 incubation (oxidative base damage) (peripheral leukocytes [4]; after treatment cycles, treated vs hOgg1 incubated non-treated mice, p<0.05)",Sufficiency to induce genotoxicity to peripheral leukocytes (peripheral leukocytes [5]),Time post-injection within which DNA damage was repaired (peripheral leukocytes [5]) [h],Micronuclei formation in circulating normochromatic erythrocytes [6]
dextran sulfate sodium [DSS],significant increase in both 8-oxoguanine and nitrotyrosine,increased dramatically,remained elevated over non-treated animals until end of treatment,no mortalities were observed,4,not directly genotoxic; also recorded: not a mutagen nor genotoxic,significantly larger proportion of these T-cells are activated,evident as early as after the acute 7 day treatment,significantly higher olive tail moments at the end of each cycle,higher when incubated with hOgg1 after treatment cycles,,,
TNF-α,,,,,,,,,,,sufficient to induce genotoxicity,≤ 24,minimally yet significantly elevated
B1,,,,,,,,,,,,≤ 24,
